Reference: paper PMC10570359, “Dietary supplementation of cystinotic mice by lysine inhibits the megalin pathway and decreases kidney cystine content” (Scientific Reports, 2023)

Columns and labels:
megalin pathway = conditions: mouse, in vivo
Method: After 24-h adaptation in metabolic cages, urine was collected during the following 24 h in presence of 0.1% sodium azide and 1x-protease inhibitors (Thermo Scientific). When in metabolic cages, mice had free access to tap water and food. Blood was collected 2 days before starting the treatments and entry into metabolic cages (baseline) and at the sacrifice to obtain serum. Body weight was recorded before entering the metabolic cages. Urine and serum analyses were performed by the veterinary laboratory Appialab Srl (Rome, Italy). Urinary levels of CC16 were measured by the Mouse Clara Cell Protein 16 kit 96 T #EKU03200 (Biomatik) according to manufacturer’s instructions. Serum levels of cystatin-C were measured by the Mouse/Rat Cystatin C Quantitative ELISA #MSCTC0 (R&D Systems). […] Creatinine clearance was normalized by mouse body weight.

Ctns KO mice kidneys = test: Kidney histology (swan-neck lesions, Sirius-red fibrosis) in Ctns KO mice; type: in vivo; conditions: primary prevention, diet from 2-to-6 months-of-age, control diet ~ 80%
Source text: By histological survey, no obvious change was evidenced after HE or PAS staining (Supplemental Fig. 4a). We thus scored the abundance of characteristic swan-neck lesions at the glomerulo-tubular junction, a quantitative marker disease, and again found no detectable protection (Supplemental Fig. 4b). However, at 6-months-of-age as baseline, most junctions were already altered (~ 80%), leaving little scope for a potential benefit. […] To look for fibrosis, histological sections at 8 months-of-age were stained with Sirius-red; its signal was automatically divided into three intensity levels over the entire kidney cortex. This quantification disclosed no detectable decrease of Sirius-red staining, thus fibrosis, upon dAAs at this interval (Supplemental Fig. 4c,d).
For in vivo endocytic tracing in PTCs, Texas Red-ovalbumin (300 µg, Invitrogen #O23021) was injected intravenously at 20 min before sacrifice. […] Proliferative events in kidney cortex were quantified as described. […] Histological PAS staining and quantification of the frequency of swan-neck lesions were performed as described. Sirius Red staining of paraffine sections and morphometry in total sagittal kidney sections after conversion to red fluorescence were performed as described[53],[54]. […]
Fo r the significance of swan-necks, please see [26]. Fo r more information on swan-neck quantification, see [22]. […]

[1] = system: kidney proximal tubular cells; conditions: Ctns KO mice kidneys at 8 months of age
Method: At cellular level, we assessed PT cell death linked to compensatory renewal, by measuring Ki-67 immunolabelling abundance, a validated proliferation index (Fig. 6a)[22].
(a) Proliferative events in PTCs were identified by Ki-67 immunolabelling in confocal images and scored over random fields to cumulative areas of 0.96 mm^2.
For immunofluorescence, antigen retrieval was promoted in citrate buffer, pH 6, at 95 °C for 20 min using a Lab Vision Pretreatment Module™ (Thermo Scientific). Tissue was permeabilized with PBS/0.3% Triton-X100 for 5 min, then for one further hour with 10% bovine serum albumin (BSA)/3% milk to block non-specific sites. […] After washing, sections were further incubated with the appropriate AlexaFluor-secondary antibodies for 1 h at room temperature in 10% BSA/0.3% Triton-X100 and mounted with Faramount aqueous mounting medium (Dako). Sections were imaged on a spinning disk confocal microscope using EC Plan-NeoFluar 40X/1.3 or 100x/1.4 Oil DIC objective (Cell Observer Spinning Disk; Zeiss). Proliferative events in kidney cortex were quantified as described[22].

[2] = system: kidney tubular reabsorption of LMWPs; design: method as in PMID 98829; conditions: humans, intravenous injection; cited from earlier work
megalin and cubilin = system: megalin and cubilin; design: method as in PMID 16508656; conditions: rats, cited from earlier work
cystinotic rat model = test: 5x-L-lysine diet in cystinotic rat model (preliminary, not shown); type: in vivo; conditions: preliminary results (not shown)
[3] = Tolerance of prolonged 5x-dAA diets in mice; conditions: ad libitum 5x-supplemented solid diet, approx. 45 mmoles/kg/day
Source text: Ctns knockout mice (C57BL/6 background) were kindly provided by Dr. Corinne Antignac[18]. […] The same increase was set for L- (and D-) lysine.

[4] = system: kidney proximal tubular cells; test: In vivo endocytic tracing with TexasRed-ovalbumin in WT mice; conditions: 3 weeks diet
Method: We also examined whether apical endocytic trafficking of megalin cargo could be blocked under 5x-L-lysine, using apical endocytic tracing in WT mice with the fluorescent megalin ligand, TexasRed-ovalbumin (TxR-OVA). Normally, mice feed at night hours. To optimize PT exposure to ingested lysine during endocytic tracing performed at day hours, mice were first reprogrammed by adaptation to inverted […]. […] This implied that the extent of competition in cortical PTCs could be greatly underestimated by measured LMWPuria. At higher magnification, contacts of TxR-OVA labeled apical endosomes with lysosomes in cortical PTCs were still visible under 5X-L-Lysine, arguing against a major impairment of apical endosomal trafficking (Fig. 4b). […]
For in vivo endocytic tracing in PTCs, Texas Red-ovalbumin (300 µg, Invitrogen #O23021) was injected intravenously at 20 min before sacrifice. […] Proliferative events in kidney cortex were quantified as described. […] Histological PAS staining and quantification of the frequency of swan-neck lesions were performed as described. Sirius Red staining of paraffine sections and morphometry in total sagittal kidney sections after conversion to red fluorescence were performed as described[53],[54].

Compound	Urine microalbumin/creatinine (megalin pathway)	increase of microalbuminuria vs control diet (megalin pathway)	swan-neck frequency at 6 months-of-age (Ctns KO mice kidneys)	Ki-67 proliferation index in PTCs [1]	impact on glomerular filtration [2]	inhibition of kidney tubular reabsorption of LMWPs [2]	tolerance (megalin and cubilin; 1-day gavage, 80 mmoles/kg)	LMWPuria (megalin and cubilin; gavage for one day)	localization of megalin and cubilin in PTCs (megalin and cubilin; gavage for one day, from base of brush border to brush border itself)	Fanconi syndrome (cystinotic rat model)	kidney cystine accumulation (cystinotic rat model)	tolerance of prolonged diet [3]	distribution of endocytic load from S1/S2 (cortex) to S3 segment (outer medulla) ([4]; inverted light cycle)	TxR-OVA fluorescence intensity in cortical PTCs ([4]; inverted light cycle (reprogrammed feeding hours), 20 min after injection)
N=C(N)NCCC[C@H](N)C(=O)O [5x-L-arginine, L-arginine]	0.2 ± 0.0 mg/g	no detectable increase	–	–	–	–	–	–	–	–	–	–	–	–
NCCCC[C@H](N)C(=O)O [5x-L-lysine, L-lysine]	–	–	~ 20%	undistinguishable	no impact	dose-dependent (up to complete) inhibition	well tolerated	prominent LMWPuria	striking relocation	serious worsening	considerably decreased	well tolerated	strong redistribution	greatly decreased
